Legend:
uterus = experiment: uterine weight in 22-day-old female rats; type: in vivo, Sprague Dawley rats; details: oral
Procedure: (§1) Ten groups of 22-day-old female Sprague Dawley rats (three animals per group) were used to evaluate the effects of estrone, tamoxifen, raloxifene, and ICI 182780 on DMBT1 expression in the uterus. The following groups of rats were treated for three days as follows:
(§2) All treatments were delivered orally in 0.5% Methocel. After treatment the animals were euthanized and the uteri were collected, weighed, frozen in liquid nitrogen, and stored at −20° C. RNA was purified from the frozen uteri using 1.0 mL of TRIzol Reagent (Invitrogen) and a PowerGen 25 tissue homogenizer (Fisher Scientific), according to the manufacturer's instructions.
In rats, uteri increase in size under the proliferative influence of estrogen, and this increase in size can be measured by weighing the tissues.
Administration of the treatments and collection of tissue samples were carried out according to the procedure described in Example 2. RNA was purified, blotted and hybridized to radioactively labeled rat ebnerin cDNA as in described in Example 2.

DMBT1 [1] = experiment: Northern analysis of DMBT1 expression in rat uterus; type: in vivo, Sprague Dawley rats; details: for DMBT1 expression on coadministration with estrone: 70 μg/kg/day estrone + 1 mg/kg/day compound, relative to estrone alone (FIG. 3A); for DMBT1 expression increase in uterine tissue: compound alone, oral, three days, estrone 70 μg/kg/day, others 1 mg/kg/day (FIG. 2)
Procedure: as §1, §2
Northern analysis was performed to determine gene expression, including DMBT1 expression, in the uterus of control and treated rats. For gel electrophoresis, samples containing 2 μg of total RNA in a volume of 2 μL of water were added to 6 microliters of formaldehyde loading dye (Ambion) and incubated at 65° C. for 20 minutes. One microliter of a 0.1 mg/ml ethidium bromide solution was then added to each sample. […] The RNA was transferred to a Hybond-N membrane (Amersham) for […] by capillary transfer blotting, using 10×SSC (0.15 M Sodium citrate, pH 7.0, 1.5 M NaCl), after which the membranes were stained with ethidium bromide, destained with water, and photographed for lane loading comparison. The membranes were then air-dried and kept at room temperature until hybridization.
A glycerol stock of a bacterial clone carrying a plasmid (pINCY) containing the rat ebnerin (DMBT1) gene was obtained from Incyte Genomics (ID#: 0000101155000011). […] One colony was selected and used to inoculate 200 mL of Lennox L Broth (Sigma)+50 μg/mL ampicillin (Sigma). The liquid culture was grown overnight at 37° C. and the bacteria were collected by centrifugation. Purification of plasmid DNA was carried out using a QIAfilter plasmid maxi kit (QIAgen) according to the manufacturer's instructions.
Purified pINCY/DMBT1 was treated with the restriction enzymes EcoRI and NotI (Promega) for the preparation and isolation of a 1,174 bp DNA fragment containing the ebnerin probe (DMBT1). The products of the restriction enzyme reaction were separated by electrophoresis on a 1× TAE, 1% SeaKem Gold Agarose Reliant gel, and the band corresponding to the 1.174 kb DNA ebnerin clone was excised. The ebnerin DNA probe was purified from the gel slice using a QIAquick Gel Extraction Kit (QIAgen) according to the manufacturer's instructions. Bound DNA was eluted from the QIAgen column with 50 μL of elution buffer. The ebnerin DNA probe in the eluate was quantified by comparison to a DNA standard by gel electrophoresis. The ebnerin DNA probe was then diluted to a final concentration of 25 ng/μL.
Random-primed probe was made from 25 ng of the purified ebnerin DNA using a DECAprime II kit (Ambion) and Redivue α-^32P dATP (10 mCi/mL) (Amersham) according to the manufacturer's instructions, with the exception that the reaction was incubated for 30 minutes at 37° C. After adding EDTA to stop the reaction, the labeled probe was purified using a QIAquick Nucleotide Removal Kit (QIAgen) according to the manufacturer's instructions, with the final volume of eluted probe being 50 μL. Two microliters were counted in a scintillation counter to ensure optimal radionuclide incorporation (>2×10^6 cpm/μL).
The blot membrane as described in section A was wet in 2×SSC buffer (Sigma) for 15 minutes, then pre-hybridized in 10 mL RapidHyb (Amersham) at 65° C. for 20 minutes. The probe was boiled for 10 minutes, and 25 μL was added to 10 mL of RapidHyb, pre-warmed to 65° C. The blot membrane was added to the diluted probe solution and incubated, with rotation, in a hybridization oven for approximately 10 hours.
The membrane was removed from the probe-containing solution and rinsed twice with 2×SSPE +0.5% SDS+0.5% pyrophosphate at room temperature, and then washed once, with gentle agitation, for 30 minutes at room temperature in the same solution.

DMBT1 [2] = experiment: quantitative RT-PCR of DMBT1 in uterus of ovariectomized rats; type: in vivo, Wistar rats; details: OVX rats, co-treatment with ethinyl estradiol (FIG. 3B)
Procedure: Six weeks old ovariectomized Wistar rats (Charles River, Wilmington, Mass.) were dosed for either one day or six weeks with vehicle or test compounds. All treatments were delivered orally, once daily, in 0.5% methylcellulose or sesame oil. After treatment, the uteri were removed, total RNA was purified from the tissues using TRIzol reagent (Invitrogen, Carlsbad, Calif.) as directed by the manufacturer.
Quantitative reverse transcription-polymerase chain reactions (RT-PCR) of DMBT1 from rat RNA samples were carried out using a One-Step RT-PCR Master Mix Kit (Applied Biosystems, Foster City, Calif.) and an ABI Prism 7000 Sequence Detection System (Applied Biosystems), as described by the manufacturer. Commercially available primers and FAM-labeled MGB probes for human and rat DMBT1 (catalog numbers Hs00244827_ml and Rn00575705_ml, respectively) were obtained from Applied Biosystems (Foster City, Calif.). Messenger RNA levels were normalized against 18S ribosomal RNA levels determined using primers and a VIC- and TAMRA-labeled probe from the same vendor.

DMBT1 [3] = experiment: DNA microarray analysis of DMBT1 expression in endometrium of ovariectomized monkeys; type: in vivo, cynomolgus monkeys (Macaca fascicularis); details: OVX monkeys, estrogen implant 19 days vs Ovx/Placebo, endometrium, microarray
Text: (§3) Adult female cynomolgus monkeys (Macaca fascicularis) were obtained from Covance Research Products. Following one complete menstrual cycle and in the follicular phase of the subsequent menstrual cycle, the animals were ovariectomized by a mid-ventral laparotomy. Ovariectomized (OVX) animals were subject to estrogen treatment after the fourth week following ovariectomy.
(§4) Following this period, the OVX monkeys were euthanized and tissue biopsies were taken from endometria of the monkeys treated with estrogen and the placebo. (Details of the endometrial features in OVX monkeys and OVX+estrogen-treated monkeys is described in Example 4.) The biopsies were placed in sterile containers, snap frozen immediately in liquid nitrogen, and stored at −80° C. until processed. Total RNA was prepared from each endometrial tissue biopsy, as described below.
Total RNA was prepared from endometrial tissue biopsies (approximately 50 mg each) using RNAzol™ (Tel-Test, Friendswood, Tex.), as follows. Two milliliters of RNAzol™ were used per 100 mg of tissue. Tissues were homogenized for 2 to 3 minutes using a Tissue Tearor homogenizer (Model No. 985-370; BioSpec Products, Bartlesville, Okla.), then transferred to a glass mortar bowl. The tissues were ground with at least 10 strokes of the pestle until a clear suspension was obtained. The homogenates were transferred to a polypropylene conical flask, to which 0.1 mL of chloroform per 1 mL of homogenate was added. The mixtures were then shaken vigorously for 1 minute. The suspensions were then transferred to a 2 mL microcentrifuge tube and centrifuged for 15. minutes at 12000 g and at 4° C. in a fixed angle rotor using a Biofuge 17R centrifuge (Baxter, Deerfield, Ill.). The aqueous phase was carefully transferred to a new microcentrifuge tube. An equal volume of isopropanol was added to the aqueous phase, mixed gently, and incubated at 4° C. for 15 minutes. RNA was pelleted by centrifuging the mixture for 15 minutes at 12000 g and at 4° C. as described above. The supernatant was removed and the pellet washed with 75% (v/v) ethanol (Pharmco Products, Brookfield, Conn.), followed by centrifugation at 7500 g for 8 minutes at 4° C. The supernatant was removed, and then the RNA pellet was air-dried briefly and resuspended in RNase-free water (Promega, Madison, Wis.). The samples were then treated with Amplification Grade RNase-free DNase I to remove any residual DNA (Invitrogen, Carlsbad, Calif.). Specifically, twenty micrograms of RNA were treated in a reaction volume of 0.1 mL, containing 1× DNase I reaction buffer and 10 units of DNase I. The reaction continued at room temperature for 15 minutes. […]

monkey endometrium = experiment: DNA microarray gene expression profile (regulated gene identifiers) in endometrium of ovariectomized monkeys; type: in vivo, cynomolgus monkeys (Macaca fascicularis); details: Ovx/E2 vs Ovx/Placebo
Text: as §3, §4
Total RNA was prepared from endometrial tissue biopsies (approximately 50 mg each) using RNAzol™ (Tel-Test, Friendswood, Tex.), as follows. Two milliliters of RNAzol™ were used per 100 mg of tissue. Tissues were homogenized for 2 to 3 minutes using a Tissue Tearor homogenizer (Model No. 985-370; BioSpec Products, Bartlesville, Okla.), then transferred to a glass mortar bowl. The tissues were ground with at least 10 strokes of the pestle until a clear suspension was obtained. […]

endometrium = experiment: average endometrial thickness in treated monkeys; type: in vivo, cynomolgus monkeys (Macaca fascicularis); details: 19 days
Text: as §3
Animals and treatment were the same as Example 1 with the following exceptions. To study the effect of PRMs on the endometrium and gene expression, groups of three ovariectomized (OVX) monkeys were given an estrogen implant (E2), plus daily oral doses of the following PRMs for 19 days: mifepristone at 10 mg/kg/d; 17N11-DE (17β-N-substituted-11β-dimethylaminophenyl-estra-4,9-dien-3-one) 1.0, 3.0, or 10 mg/kg/d; 17N11-PE (17β-N-substituted-11β-piperidinylphenyl-estra-4,9-dien-3-one) at 1.0, 3.0, or 10 mg/kg/d. A placebo (0.5% methylcellulose) was administered as a control. 17N11-DE and 17N11-PE are two PRMs that have been described in PCT Publication No. WO 99/62928. Tissue samples were taken from endometria and myometria for histological analysis.

luminal epithelium = luminal epithelium thickening in rat uterus sections; type: in vivo, Wistar rats; details: OVX rats dosed six weeks, compared to sham and ovariectomized control; estrogen = ethinyl estradiol
Procedure: Mature, six week-old ovariectomized or sham-operated Wistar rats (Charles River) were dosed with ethinyl estradiol, tamoxifen or raloxifene for six weeks. Uteri were removed, sectioned for immunohistochemical analysis for DMBT1 expression using a polyclonal goat antibody against the human protein.
Tissues were trimmed and processed for paraffin embedding according to conventional methods. Five-micron sections were cut, mounted onto SuperFrost Plus+(Fisher Scientific, Pittsburgh, Pa.) microscopic slides and dried overnight. The protocols for routine single immunohistochemistry (IHC) have been described previously (D'Andrea et al., 2001, Biotechnic Histochem. 76:97-106). Briefly, tissue sections on microscopic slides were dewaxed and re-hydrated. Slides were microwaved for 5 min in Target buffer (Dako, Carpenturia, Calif.), cooled, placed in phosphate-buffered saline (PBS, pH 7.4) and treated with 3% (v/v) H2O2 for 10 min at room temperature. All incubations (30 min each) and washes were performed at room temperature. Normal rabbit blocking serum (Vector Labs, Burlingame, Calif.) was placed on all slides for 10 min. After a brief rinse in PBS, sections were treated with goat polyclonal DMBT1 primary antibody (1:25, Hypromatrix, Worcester, Mass.). Slides were then washed in PBS and treated with rabbit anti-goat biotinylated secondary antibodies (Vector Labs). After washing in PBS, the avidin-biotin-horseradish peroxidase complex reagent (HRP, Vector Labs) was added. All slides were washed and treated with 3,3′-diaminobenzidine (DAB, Biomeda, Foster City, Calif.) two times for 5 min each, rinsed in distilled water, and counterstained with hematoxylin.

[4] = estrogen-stimulated endometrium (C)

Question: Which results are given for C[C@]12CC[C@@H]3c4ccc(O)cc4C[C@@H](CCCCCCCCC[S+]([O-])CCCC(F)(F)C(F)(F)F)[C@H]3[C@@H]1CC[C@@H]2O (some centres unmarked) [ICI 182780]?
Answer: uterine weight on co-treatment with estrone (uterus; 70 μg/kg/day estrone + 1 mg/kg/day compound, three days (FIG. 1)): approximately between that of estrone (E) and ICI 182780 (1) treatments alone; uterine weight (uterus; compound alone, three days, estrone 70 μg/kg/day, others 1 mg/kg/day, vs control (FIG. 1)): significant decrease in uterine weight; DMBT1 expression on coadministration with estrone (DMBT1 [1]; 1 mg/kg/day): moderately lowered; DMBT1 expression on coadministration with estrone (DMBT1 [1]; listed as ICI 182,780, 1 mg/kg/day): inhibited; DMBT1 expression increase in uterine tissue (DMBT1 [1]): undetectable levels

Question: C[C@]12CC[C@@H]3c4ccc(O)cc4CC[C@H]3[C@@H]1CCC2=O [estrone] was tested. Which “DMBT1 expression increase in uterine tissue” value (DMBT1 [1]) did it give?
Answer: ~5 fold

Question: CC(=O)O[C@]1(C(C)=O)CC[C@H]2[C@@H]3C[C@H](C)C4=CC(=O)CC[C@]4(C)[C@H]3CC[C@@]21C [medroxyprogesterone acetate] was tested. Which “effect on ethinyl estradiol-induced increase in DMBT1 mRNA levels” value (DMBT1 [2]) did it give?
Answer: blocked the increase in mRNA levels in a dose-dependent manner

Question: For estrogen, which “expression of DMBT1 up-regulated” value (DMBT1 [3]) is on record?
Answer: 37 fold

Question: And the “PR gene regulation by estrogen” value (monkey endometrium)?
Answer: threefold up-regulation

Question: What about the “insulin-like growth factor binding protein 3 gene regulation by estrogen” value (monkey endometrium) of the same compound?
Answer: tenfold down-regulation

Question: And the “Endometrial Thickness (mm)” value (endometrium; Ovx/E2/Vehicle)?
Answer: 3.03 mm

Question: What about the “endometrial thickness relative to chemically castrated endometrium (B)” value (endometrium; [4]) of the same compound?
Answer: 2.5 times

Question: And the “endometrial thickness relative to ovariectomized control (A)” value (endometrium; [4])?
Answer: seven to eight times thicker

Question: What about the “thickening of the luminal epithelium” value (luminal epithelium) of the same compound?
Answer: expected thickening of the luminal epithelium

Source: US20050208511A1, “DMBT1 as a clinical marker and uses thereof” (priority 2003, published 2005)
